The source of these data is patent US20150005281A1, “PYRIMIDINE-2,4-DIAMINE DERIVATIVES AS KINASE INHIBITORS” (Cellzome Limited, priority 2011, published 2015).

Holding throughout (assay type): binding
One experiment deals with T1, TYK2 (Homo sapiens, UniProt P29597).
T1 construct: endogenous in cells; host or cells: Molt4 (ATCC CRL-1582) and Ramos (ATCC CRL-1596) cells; mixed lysate 1:2
As to the kind of experiment: Kinobeads assay with immunodetection, TYK2. The note with it: for IC50: Kinobeads assay, mixed Molt4/Ramos lysate, read-out: Inhibition values (IC50) Tyk2. The essentials:
(§1)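 Steps: compound serially diluted 1:3 in DMSO; added with kinobeads to mixed Molt4/Ramos lysate; 3 h cold incubation; wash; SDS elution; antibody dot blot quantitation of each kinase; IC50 fitting.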

The target in the next experiment is T2, JAK3 (Homo sapiens, UniProt P52333).
T2 construct: endogenous in cells; host or cells: Molt4 (ATCC CRL-1582) and Ramos (ATCC CRL-1596) cells; mixed lysate 1:2
T2 sequence (P52333 1-1124): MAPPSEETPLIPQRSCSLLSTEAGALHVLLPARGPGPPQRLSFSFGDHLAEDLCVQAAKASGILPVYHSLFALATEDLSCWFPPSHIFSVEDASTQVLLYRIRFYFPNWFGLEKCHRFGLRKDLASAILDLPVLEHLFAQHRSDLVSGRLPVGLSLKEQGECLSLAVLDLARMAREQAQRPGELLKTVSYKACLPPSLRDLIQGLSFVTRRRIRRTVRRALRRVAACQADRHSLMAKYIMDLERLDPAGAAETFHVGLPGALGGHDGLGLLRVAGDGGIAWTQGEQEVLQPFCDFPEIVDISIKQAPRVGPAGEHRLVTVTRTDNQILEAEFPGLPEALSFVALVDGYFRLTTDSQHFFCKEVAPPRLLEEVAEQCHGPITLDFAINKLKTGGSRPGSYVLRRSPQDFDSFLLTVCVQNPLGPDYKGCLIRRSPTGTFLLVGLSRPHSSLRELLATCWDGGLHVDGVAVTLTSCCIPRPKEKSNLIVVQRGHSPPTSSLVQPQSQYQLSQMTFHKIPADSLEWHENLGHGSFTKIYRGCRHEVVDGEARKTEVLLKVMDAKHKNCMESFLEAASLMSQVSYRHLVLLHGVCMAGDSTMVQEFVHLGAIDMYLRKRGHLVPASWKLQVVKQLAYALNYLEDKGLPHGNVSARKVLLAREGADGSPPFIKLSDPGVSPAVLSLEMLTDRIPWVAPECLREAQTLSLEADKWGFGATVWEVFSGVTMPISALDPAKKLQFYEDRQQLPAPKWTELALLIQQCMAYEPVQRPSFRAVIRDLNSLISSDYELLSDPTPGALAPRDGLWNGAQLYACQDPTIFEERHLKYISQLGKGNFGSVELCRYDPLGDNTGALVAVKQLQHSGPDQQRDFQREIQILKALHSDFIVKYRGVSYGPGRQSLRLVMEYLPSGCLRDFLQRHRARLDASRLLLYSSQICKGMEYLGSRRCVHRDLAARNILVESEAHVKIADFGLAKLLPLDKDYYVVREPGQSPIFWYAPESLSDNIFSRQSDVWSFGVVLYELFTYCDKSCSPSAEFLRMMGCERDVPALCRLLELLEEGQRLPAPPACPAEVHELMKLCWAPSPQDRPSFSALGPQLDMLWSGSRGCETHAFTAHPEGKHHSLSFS
As to the kind of experiment: Kinobeads assay with immunodetection, JAK3. To be noted: for IC50: Kinobeads assay, mixed Molt4/Ramos lysate, read-out: Inhibition values (IC50) JAK3. The essentials: as §1

The next experiment addresses T3, JAK2 (Homo sapiens, UniProt O60674).
T3 construct: endogenous in cells; host or cells: Molt4 (ATCC CRL-1582) and Ramos (ATCC CRL-1596) cells; mixed lysate 1:2
As to the kind of experiment: Kinobeads assay with immunodetection, JAK2. To be noted: mixed Molt4/Ramos lysate, read-out: Inhibition values (IC50) JAK2. The essentials:
as §1

Another experiment concerns the target T4, JAK1 (Homo sapiens, UniProt P23458).
T4 construct: endogenous in cells; host or cells: Molt4 (ATCC CRL-1582) and Ramos (ATCC CRL-1596) cells; mixed lysate 1:2
As to the kind of experiment: Kinobeads assay with immunodetection, JAK1. The note with it: for IC50: Kinobeads assay, mixed Molt4/Ramos lysate, read-out: Inhibition values (IC50) JAK1. The essentials: as §1

T1 sequence (P29597 whole entry): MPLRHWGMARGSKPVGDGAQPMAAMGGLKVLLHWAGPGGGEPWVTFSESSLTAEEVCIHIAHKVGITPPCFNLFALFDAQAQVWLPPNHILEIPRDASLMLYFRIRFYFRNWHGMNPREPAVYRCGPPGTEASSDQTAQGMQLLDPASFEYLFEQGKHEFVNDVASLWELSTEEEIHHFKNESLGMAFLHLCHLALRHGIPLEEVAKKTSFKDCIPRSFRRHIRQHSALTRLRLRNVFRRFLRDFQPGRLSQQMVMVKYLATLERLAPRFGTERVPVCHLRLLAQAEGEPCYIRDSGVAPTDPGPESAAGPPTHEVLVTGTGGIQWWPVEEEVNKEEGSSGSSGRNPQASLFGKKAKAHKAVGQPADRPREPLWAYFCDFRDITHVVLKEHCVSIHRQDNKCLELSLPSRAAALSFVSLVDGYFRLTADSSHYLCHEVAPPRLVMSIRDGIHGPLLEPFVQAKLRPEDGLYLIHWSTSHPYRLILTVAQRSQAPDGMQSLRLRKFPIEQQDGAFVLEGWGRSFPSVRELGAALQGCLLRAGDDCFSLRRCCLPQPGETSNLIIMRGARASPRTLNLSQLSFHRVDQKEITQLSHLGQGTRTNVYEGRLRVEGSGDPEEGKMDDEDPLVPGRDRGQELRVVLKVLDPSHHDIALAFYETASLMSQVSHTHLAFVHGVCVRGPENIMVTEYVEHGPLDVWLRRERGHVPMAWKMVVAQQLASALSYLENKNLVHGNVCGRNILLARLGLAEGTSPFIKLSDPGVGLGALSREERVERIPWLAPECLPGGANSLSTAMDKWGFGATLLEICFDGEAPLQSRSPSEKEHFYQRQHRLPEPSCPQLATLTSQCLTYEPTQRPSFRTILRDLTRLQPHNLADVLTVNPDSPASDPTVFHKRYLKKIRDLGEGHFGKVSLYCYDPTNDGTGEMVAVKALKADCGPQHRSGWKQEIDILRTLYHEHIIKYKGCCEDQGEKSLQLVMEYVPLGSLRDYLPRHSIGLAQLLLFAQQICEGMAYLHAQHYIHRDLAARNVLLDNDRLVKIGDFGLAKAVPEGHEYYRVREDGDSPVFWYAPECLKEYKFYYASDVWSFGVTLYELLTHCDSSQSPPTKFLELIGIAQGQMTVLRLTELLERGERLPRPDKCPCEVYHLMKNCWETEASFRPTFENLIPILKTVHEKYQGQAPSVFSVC
T4 sequence (P23458 whole entry): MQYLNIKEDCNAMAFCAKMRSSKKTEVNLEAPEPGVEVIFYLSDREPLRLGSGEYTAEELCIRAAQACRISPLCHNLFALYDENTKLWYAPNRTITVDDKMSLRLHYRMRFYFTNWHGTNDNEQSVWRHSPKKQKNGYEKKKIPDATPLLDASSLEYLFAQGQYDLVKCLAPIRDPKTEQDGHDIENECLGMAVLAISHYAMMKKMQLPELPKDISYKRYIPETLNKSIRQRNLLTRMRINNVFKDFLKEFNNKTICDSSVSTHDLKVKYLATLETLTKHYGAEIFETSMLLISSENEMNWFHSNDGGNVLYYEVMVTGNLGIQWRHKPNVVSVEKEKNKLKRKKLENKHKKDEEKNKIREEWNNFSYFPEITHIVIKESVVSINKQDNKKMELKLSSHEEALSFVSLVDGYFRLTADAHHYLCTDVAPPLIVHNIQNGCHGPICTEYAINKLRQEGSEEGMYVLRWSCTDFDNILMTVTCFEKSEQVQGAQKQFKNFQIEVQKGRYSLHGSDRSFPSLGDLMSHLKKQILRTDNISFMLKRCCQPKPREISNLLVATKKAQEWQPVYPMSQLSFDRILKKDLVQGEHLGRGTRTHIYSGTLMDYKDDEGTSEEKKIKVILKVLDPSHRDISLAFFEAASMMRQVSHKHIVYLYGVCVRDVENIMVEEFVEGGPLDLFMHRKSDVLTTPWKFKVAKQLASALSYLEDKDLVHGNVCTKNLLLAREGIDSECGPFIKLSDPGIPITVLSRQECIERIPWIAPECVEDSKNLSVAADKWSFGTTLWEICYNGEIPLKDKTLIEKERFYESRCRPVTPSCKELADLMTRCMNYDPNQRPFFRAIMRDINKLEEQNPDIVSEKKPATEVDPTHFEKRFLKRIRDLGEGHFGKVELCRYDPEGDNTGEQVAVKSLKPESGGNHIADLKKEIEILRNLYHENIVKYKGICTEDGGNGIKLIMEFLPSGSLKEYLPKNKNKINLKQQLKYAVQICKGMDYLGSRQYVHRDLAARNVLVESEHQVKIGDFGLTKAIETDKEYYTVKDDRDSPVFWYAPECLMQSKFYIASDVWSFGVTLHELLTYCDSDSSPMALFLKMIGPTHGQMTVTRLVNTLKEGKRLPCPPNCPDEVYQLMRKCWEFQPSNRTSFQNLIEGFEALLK
T3 sequence (O60674 whole entry): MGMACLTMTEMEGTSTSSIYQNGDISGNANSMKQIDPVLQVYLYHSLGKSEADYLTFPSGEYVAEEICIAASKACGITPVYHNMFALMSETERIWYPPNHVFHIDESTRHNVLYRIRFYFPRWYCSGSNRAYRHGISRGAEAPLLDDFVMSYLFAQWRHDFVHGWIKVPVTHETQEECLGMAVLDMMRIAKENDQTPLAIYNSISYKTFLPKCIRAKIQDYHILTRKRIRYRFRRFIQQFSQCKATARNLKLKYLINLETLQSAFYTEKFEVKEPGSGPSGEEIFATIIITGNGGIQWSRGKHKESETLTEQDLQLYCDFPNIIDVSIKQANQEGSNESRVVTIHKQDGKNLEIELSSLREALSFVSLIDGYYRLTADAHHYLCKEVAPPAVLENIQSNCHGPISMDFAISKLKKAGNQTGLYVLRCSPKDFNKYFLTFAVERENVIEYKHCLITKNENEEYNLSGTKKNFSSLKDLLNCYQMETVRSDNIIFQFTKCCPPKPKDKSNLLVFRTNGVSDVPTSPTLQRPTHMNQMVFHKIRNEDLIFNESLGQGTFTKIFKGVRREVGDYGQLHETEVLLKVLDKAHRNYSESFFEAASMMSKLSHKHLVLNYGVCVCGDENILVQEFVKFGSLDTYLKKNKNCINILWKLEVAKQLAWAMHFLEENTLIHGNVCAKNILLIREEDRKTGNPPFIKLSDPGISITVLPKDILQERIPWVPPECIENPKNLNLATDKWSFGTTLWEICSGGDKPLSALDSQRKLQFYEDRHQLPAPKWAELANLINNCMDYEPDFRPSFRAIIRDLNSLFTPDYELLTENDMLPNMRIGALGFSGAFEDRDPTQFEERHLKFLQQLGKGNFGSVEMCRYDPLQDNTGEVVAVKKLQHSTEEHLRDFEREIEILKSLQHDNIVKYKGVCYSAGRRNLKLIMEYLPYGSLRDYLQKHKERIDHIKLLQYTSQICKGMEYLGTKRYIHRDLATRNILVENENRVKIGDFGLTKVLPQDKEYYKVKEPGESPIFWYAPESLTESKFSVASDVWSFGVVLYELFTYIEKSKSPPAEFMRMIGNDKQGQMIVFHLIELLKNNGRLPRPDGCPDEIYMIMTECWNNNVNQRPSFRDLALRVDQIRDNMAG

Turning to `Cn1cc(Nc2ncc(Cl)c(NC[C@H]3CCCN3C(=O)CCC#N)n2)cn1` [Example 86, (R)-4-(2-(((5-chloro-2-((1-methyl-1H-pyrazol-4-yl)amino)pyrimidin-4-yl)amino)methyl)pyrrolidin-1-yl)-4-oxobutanenitrile], the 50% inhibitory concentration (IC50) – broadly, the concentration that gives 50% inhibition – on TYK2 was below 0.1 µM; on JAK3, below 0.1 µM; on JAK2, 0.1 to 1 µM; at JAK1, below 0.1 µM. For the same compound, the “Selectivity ratio over JAK2, Tyk2” value on TYK2 is listed as “Tyk2 = 33”.

For `CN(C)CC(=O)N1CC[C@H](CNc2nc(Nc3cnn(C)c3)ncc2Cl)C1` [Example 59, (R)-1-(3-((5-chloro-2-(1-methyl-1H-pyrazol-4-ylamino)pyrimidin-4-ylamino)methyl)pyrrolidin-1-yl)-2-(dimethylamino)ethanone], the IC50 on TYK2 was in the range of 0.1 to 1 µM; on JAK3, 1 to 10 µM; on JAK2 it was 1 to 10 µM; at JAK1, 0.1 to 1 µM. Further, the “Selectivity ratio over JAK2, JAK1” value on JAK1 is reported as “JAK1 = 33”.

As for `CC(C)NC(=O)Cn1cc(Nc2nccc(NC[C@H]3CCCN3CCC#N)n2)cn1` [Example 83, (R)-2-(4-((4-(((1-(2-cyanoethyl)pyrrolidin-2-yl)methyl)amino)pyrimidin-2-yl)amino)-1H-pyrazol-1-yl)-N-isopropylacetamide], the IC50 is below 0.1 µM on TYK2, 1 to 10 µM at JAK3, above 10 µM on JAK2 and 1 to 10 µM on JAK1. Moreover, the “Selectivity ratio over JAK2, Tyk2” value on TYK2 is “Tyk2 = 650”.

As for `Cn1cc(Nc2ncc(Cl)c(NC[C@@H]3CCN(S(C)(=O)=O)C3)n2)cn1` [Example 30, (S)-5-chloro-N^2-(1-methyl-1H-pyrazol-4-yl)-N^4-((1-(methylsulfonyl)pyrrolidin-3-yl)methyl)pyrimidine-2,4-diamine], the IC50 at TYK2 was in the range of 0.1 to 1 µM; on JAK3, 0.1 to 1 µM; on JAK2 it was 1 to 10 µM; on JAK1, 1 to 10 µM. Besides, the “Selectivity ratio over JAK2, Tyk2” value at TYK2 is “Tyk2 = 9”.

`Cc1cnc(Nc2cnn(C)c2)nc1NC[C@H]1CCN(C(=O)CCC#N)C1` [Example 111, (R)-4-(3-(((5-methyl-2-((1-methyl-1H-pyrazol-4-yl)amino)pyrimidin-4-yl)amino)methyl)pyrrolidin-1-yl)-4-oxobutanenitrile]: the IC50 on TYK2 was below 0.1 µM; at JAK3 it was 1 to 10 µM; on JAK2, 1 to 10 µM; at JAK1 it was below 0.1 µM. Moreover, the “Selectivity ratio over JAK2, JAK1” value at JAK1 is “JAK1 = 55”.

In the case of `C=CC(=O)N1CCCC[C@H]1CNc1nc(Nc2cnn(CCO)c2)ncc1Cl` [Example 35, (S)-1-(2-(((5-chloro-2-((1-(2-hydroxyethyl)-1H-pyrazol-4-yl)amino)pyrimidin-4-yl)amino)methyl)piperidin-1-yl)prop-2-en-1-one], the IC50 at TYK2 is 1 to 10 µM; on JAK3, 1 to 10 µM; at JAK2, above 10 µM; on JAK1, 0.1 to 1 µM.

For `CN(C)CC(=O)N1CCC[C@@H]1CNc1nc(Nc2cnn(C)c2)ncc1Cl` [Example 53, (R)-1-(2-((5-chloro-2-(1-methyl-1H-pyrazol-4-ylamino)pyrimidin-4-ylamino)methyl)pyrrolidin-1-yl)-2-(dimethylamino)ethanone], the IC50 at TYK2 is 0.1 to 1 µM; at JAK3 it was 0.1 to 1 µM; on JAK2 it was 1 to 10 µM; on JAK1, below 0.1 µM. On JAK1, the “Selectivity ratio over JAK2, JAK1” value was “JAK1 = 93”.

As for `CNC(=O)Cn1cc(Nc2ncc(Cl)c(NC[C@H]3CCCN3S(C)(=O)=O)n2)cn1` [Example 67, (R)-2-(4-(5-chloro-4-((1-(methylsulfonyl)pyrrolidin-2-yl)methylamino)pyrimidin-2-ylamino)-1H-pyrazol-1-yl)-N-methylacetamide], the IC50 at TYK2, at JAK3, on JAK2 and on JAK1 was below 0.1 µM each time. The “Selectivity ratio over JAK2, Tyk2” value at TYK2 is “Tyk2 = 13”.

Consider `Cn1cc(Nc2ncc(Cl)c(NCC3CCOCC3)n2)cn1` [Example 46, 5-chloro-N^2-(1-methyl-1H-pyrazol-4-yl)-N^4-((tetrahydro-2H-pyran-4-yl)methyl)pyrimidine-2,4-diamine], for which the IC50 on TYK2 was in the range of 0.1 to 1 µM; on JAK3, 0.1 to 1 µM; on JAK2, 1 to 10 µM; on JAK1, 0.1 to 1 µM. The “Selectivity ratio over JAK2, JAK1” value on JAK1 is reported as “JAK1 = 6”.

Turning to `Cn1cc(Nc2ncc(Cl)c(NC[C@H]3CCCN3CCCC#N)n2)cn1` [Example 97, (R)-4-(2-(((5-chloro-2-((1-methyl-1H-pyrazol-4-yl)amino)pyrimidin-4-yl)amino)methyl)pyrrolidin-1-yl)butanenitrile], the concentration for half-maximal inhibition (IC50) on TYK2 was below 0.1 µM; at JAK3, below 0.1 µM; on JAK2, 1 to 10 µM; on JAK1 it was below 0.1 µM. Besides, the “Selectivity ratio over JAK2, JAK3” value at JAK3 is “JAK3 = 160”.

Regarding `C=CC(=O)N1CCCC[C@@H]1CNc1nc(Nc2cnn(CCO)c2)ncc1Cl` [Example 42, (R)-1-(2-(((5-chloro-2-((1-(2-hydroxyethyl)-1H-pyrazol-4-yl)amino)pyrimidin-4-yl)amino)methyl)piperidin-1-yl)prop-2-en-1-one], the IC50 on TYK2 is below 0.1 µM; on JAK3, 0.1 to 1 µM; at JAK2, 0.1 to 1 µM; on JAK1, 0.1 to 1 µM. Also, at TYK2, the “Selectivity ratio over JAK2, Tyk2” value is reported as “Tyk2 = 4”.

Turning to `CN1CCCC1CNc1nc(Nc2cnn(C)c2)ncc1Cl` (stereo not shown) [Example 62, 5-chloro-N^2-(1-methyl-1H-pyrazol-4-yl)-N^4-((1-methylpyrrolidin-2-yl)methyl)pyrimidine-2,4-diamine], the IC50 at TYK2 is above 10 µM; at JAK3, 0.1 to 1 µM; at JAK2 it was above 10 µM; at JAK1 it was 0.1 to 1 µM. Further, the “Selectivity ratio over JAK2, JAK1” value on JAK1 is recorded as “JAK1 = 23”.

With `Cn1cc(Nc2ncc(Cl)c(NC[C@H]3CCN(CCC#N)C3)n2)cn1` [Example 57, (R)-3-(3-((5-chloro-2-(1-methyl-1H-pyrazol-4-ylamino)pyrimidin-4-ylamino)methyl)pyrrolidin-1-yl)propanenitrile], the IC50 at TYK2 is 0.1 to 1 µM; on JAK3, below 0.1 µM; at JAK2, 1 to 10 µM; on JAK1, 0.1 to 1 µM. Besides, the “Selectivity ratio over JAK2, JAK1” value at JAK1 is given as “JAK1 = 15”.

As to `Cn1cc(Nc2ncc(Cl)c(NC[C@H]3CCCN3CCNS(C)(=O)=O)n2)cn1` [Example 126, (R)—N-(2-(2-(((5-chloro-2-((1-methyl-1H-pyrazol-4-yl)amino)pyrimidin-4-yl)amino)methyl)pyrrolidin-1-yl)ethyl)methanesulfonamide], the IC50 was below 0.1 µM on TYK2, 0.1 to 1 µM at JAK3, 0.1 to 1 µM on JAK2 and below 0.1 µM at JAK1. For the same compound, the “Selectivity ratio over JAK2, JAK3” value at JAK3 was “JAK3 = 46”.

As for `Cn1cc(Nc2ncc(Cl)c(NC[C@H]3CCCN3CC(=O)NCC#N)n2)cn1` [Example 99, (R)-2-(2-(((5-chloro-2-((1-methyl-1H-pyrazol-4-yl)amino)pyrimidin-4-yl)amino)methyl)pyrrolidin-1-yl)-N-(cyanomethyl)acetamide], the IC50 was 0.1 to 1 µM at TYK2, below 0.1 µM at JAK3, 1 to 10 µM at JAK2 and below 0.1 µM on JAK1. Besides, at JAK3, the “Selectivity ratio over JAK2, JAK3” value was “JAK3 = 155”.

`Cn1cc(Nc2ncc(Cl)c(NC[C@@H]3C[C@H](F)CN3CCCS(C)(=O)=O)n2)cn1` [Example 132, 5-chloro-N^4-(((2S,4S)-4-fluoro-1-(3-(methylsulfonyl)propyl)pyrrolidin-2-yl)methyl)-N^2-(1-methyl-1H-pyrazol-4-yl)pyrimidine-2,4-diamine]: the IC50 was below 0.1 µM on TYK2, 0.1 to 1 µM at JAK3, 1 to 10 µM at JAK2 and below 0.1 µM at JAK1. For the same compound, the “Selectivity ratio over JAK2, JAK1” value on JAK1 is given as “JAK1 = 100”.
